# In the supplement of paper PMC10307832:
# Columns and labels:
# [1] = compound: COc1cc(-c2nn([C@H]3CC[C@H](N4CCN(C(C)=O)CC4)CC3)c3ncnc(N)c23)ccc1NC(=O)c1cc2ccccc2n1C + Cc1nc(Nc2ncc(C(=O)Nc3c(C)cccc3Cl)s2)cc(N2CCN(CCO)CC2)n1 [Dasatinib] (partner 0.075 µM); assay: relative viability (nuclei count vs DMSO), 5 days (fraction); higher = more cells survive
# Summary of the method: (§1)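 Medians of duplicate plates are given as relative viability. That measure is the nuclei count in treated wells divided by the count in vehicle wells. Counts were taken on 4× images of lung cancer cell lines in 1536-well plates, 5 days after pin-tool dosing the day after seeding with one drug alone or a fixed anchor-drug dose plus five library-drug doses (not always all listed) in √10 steps.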
# Midostaurin + Trametinib = compound: CO[C@@H]1[C@H](N(C)C(=O)c2ccccc2)C[C@H]2O[C@]1(C)n1c3ccccc3c3c4c(c5c6ccccc6n2c5c31)C(=O)NC4 [Midostaurin] + CC(=O)Nc1cccc(-n2c(=O)n(C3CC3)c(=O)c3c(Nc4ccc(I)cc4F)n(C)c(=O)c(C)c32)c1 [Trametinib] (partner 0.02 µM); assay: as above
# Summary of the method: as §1
cell line,measurement,setting,value
NCI-H522,relative viability,[1]; first compound 0.0128 µM,0.794
same,relative viability,[1]; first compound 0.04048 µM,0.843
same,relative viability,[1]; first compound 0.128 µM,0.809
same,relative viability,[1]; first compound 1.28 µM,0.897
same,relative viability,Midostaurin + Trametinib; first compound 0.01 µM,0.719
same,relative viability,Midostaurin + Trametinib; first compound 0.03162 µM,0.825
same,relative viability,Midostaurin + Trametinib; first compound 0.1 µM,0.752
same,relative viability,Midostaurin + Trametinib; first compound 0.3162 µM,0.839
NCI-H838,relative viability,[1]; first compound 0.0128 µM,0.304
same,relative viability,[1]; first compound 0.04048 µM,0.261
same,relative viability,[1]; first compound 0.128 µM,0.276
same,relative viability,[1]; first compound 1.28 µM,0.342
same,relative viability,Midostaurin + Trametinib; first compound 0.01 µM,0.518
same,relative viability,Midostaurin + Trametinib; first compound 0.03162 µM,0.562
same,relative viability,Midostaurin + Trametinib; first compound 0.1 µM,0.412
same,relative viability,Midostaurin + Trametinib; first compound 0.3162 µM,0.311
SW 900,relative viability,[1]; first compound 0.0128 µM,0.616
same,relative viability,[1]; first compound 0.04048 µM,0.707
same,relative viability,[1]; first compound 0.128 µM,0.487
same,relative viability,[1]; first compound 1.28 µM,0.578
same,relative viability,Midostaurin + Trametinib; first compound 0.01 µM,0.759
same,relative viability,Midostaurin + Trametinib; first compound 0.03162 µM,0.919
same,relative viability,Midostaurin + Trametinib; first compound 0.1 µM,0.743
same,relative viability,Midostaurin + Trametinib; first compound 0.3162 µM,0.962
A-427,relative viability,[1]; first compound 0.0128 µM,0.744
same,relative viability,[1]; first compound 0.128 µM,0.65
same,relative viability,[1]; first compound 1.28 µM,0.856
same,relative viability,Midostaurin + Trametinib; first compound 0.01 µM,0.671
same,relative viability,Midostaurin + Trametinib; first compound 0.03162 µM,0.809
same,relative viability,Midostaurin + Trametinib; first compound 0.1 µM,0.712
same,relative viability,Midostaurin + Trametinib; first compound 0.3162 µM,0.637
NCI-H1792,relative viability,[1]; first compound 0.0128 µM,0.505
same,relative viability,[1]; first compound 0.04048 µM,0.731
same,relative viability,[1]; first compound 0.128 µM,0.749
same,relative viability,[1]; first compound 1.28 µM,0.645
same,relative viability,Midostaurin + Trametinib; first compound 0.01 µM,0.508
same,relative viability,Midostaurin + Trametinib; first compound 0.03162 µM,0.37
same,relative viability,Midostaurin + Trametinib; first compound 0.1 µM,0.383
same,relative viability,Midostaurin + Trametinib; first compound 0.3162 µM,0.338
LCLC-97TM1,relative viability,[1]; first compound 0.0128 µM,0.97
same,relative viability,[1]; first compound 0.04048 µM,0.348
same,relative viability,[1]; first compound 0.128 µM,0.789
same,relative viability,[1]; first compound 1.28 µM,0.697
same,relative viability,Midostaurin + Trametinib; first compound 0.01 µM,0.266
same,relative viability,Midostaurin + Trametinib; first compound 0.03162 µM,0.194
same,relative viability,Midostaurin + Trametinib; first compound 0.1 µM,0.195
same,relative viability,Midostaurin + Trametinib; first compound 0.3162 µM,0.184
LCLC-103H,relative viability,[1]; first compound 0.0128 µM,0.538
same,relative viability,[1]; first compound 0.04048 µM,0.472
same,relative viability,[1]; first compound 0.128 µM,0.41
same,relative viability,[1]; first compound 1.28 µM,0.449
same,relative viability,Midostaurin + Trametinib; first compound 0.01 µM,0.723
same,relative viability,Midostaurin + Trametinib; first compound 0.03162 µM,0.686
same,relative viability,Midostaurin + Trametinib; first compound 0.1 µM,0.717
same,relative viability,Midostaurin + Trametinib; first compound 0.3162 µM,0.681
PC-3 [JPC-3],relative viability,[1]; first compound 0.0128 µM,0.985
same,relative viability,[1]; first compound 0.04048 µM,0.881
same,relative viability,[1]; first compound 0.128 µM,0.922
same,relative viability,[1]; first compound 1.28 µM,1.03
same,relative viability,Midostaurin + Trametinib; first compound 0.01 µM,0.684
same,relative viability,Midostaurin + Trametinib; first compound 0.03162 µM,0.722
same,relative viability,Midostaurin + Trametinib; first compound 0.1 µM,0.699
same,relative viability,Midostaurin + Trametinib; first compound 0.3162 µM,0.814
BEN,relative viability,[1]; first compound 0.0128 µM,0.251
same,relative viability,[1]; first compound 0.04048 µM,0.32
same,relative viability,[1]; first compound 0.128 µM,0.351
same,relative viability,[1]; first compound 1.28 µM,0.318
same,relative viability,Midostaurin + Trametinib; first compound 0.01 µM,1.05
same,relative viability,Midostaurin + Trametinib; first compound 0.03162 µM,0.976
same,relative viability,Midostaurin + Trametinib; first compound 0.1 µM,1.06
same,relative viability,Midostaurin + Trametinib; first compound 0.3162 µM,1.25
NCI-H1666,relative viability,[1]; first compound 0.0128 µM,0.766
same,relative viability,[1]; first compound 0.04048 µM,0.807
same,relative viability,[1]; first compound 0.128 µM,0.802
same,relative viability,[1]; first compound 1.28 µM,0.756
same,relative viability,Midostaurin + Trametinib; first compound 0.01 µM,0.823
same,relative viability,Midostaurin + Trametinib; first compound 0.03162 µM,0.882
same,relative viability,Midostaurin + Trametinib; first compound 0.1 µM,0.711
same,relative viability,Midostaurin + Trametinib; first compound 0.3162 µM,0.81
LC-2-ad,relative viability,[1]; first compound 0.0128 µM,0.633
same,relative viability,[1]; first compound 0.04048 µM,0.25
same,relative viability,[1]; first compound 0.128 µM,0.622
same,relative viability,[1]; first compound 1.28 µM,0.369
same,relative viability,Midostaurin + Trametinib; first compound 0.01 µM,0.906
same,relative viability,Midostaurin + Trametinib; first compound 0.03162 µM,0.918
same,relative viability,Midostaurin + Trametinib; first compound 0.1 µM,0.749
same,relative viability,Midostaurin + Trametinib; first compound 0.3162 µM,0.9
SK-LU-1,relative viability,[1]; first compound 0.0128 µM,0.201
same,relative viability,[1]; first compound 0.04048 µM,0.236
same,relative viability,[1]; first compound 0.128 µM,0.211
same,relative viability,[1]; first compound 1.28 µM,0.243
same,relative viability,Midostaurin + Trametinib; first compound 0.01 µM,0.511
same,relative viability,Midostaurin + Trametinib; first compound 0.03162 µM,0.517
same,relative viability,Midostaurin + Trametinib; first compound 0.1 µM,0.521
same,relative viability,Midostaurin + Trametinib; first compound 0.3162 µM,0.509
ChaGo-K-1,relative viability,[1]; first compound 0.0128 µM,0.693
same,relative viability,[1]; first compound 0.04048 µM,0.62
same,relative viability,[1]; first compound 0.128 µM,0.568
same,relative viability,[1]; first compound 1.28 µM,0.621
same,relative viability,Midostaurin + Trametinib; first compound 0.01 µM,0.949
same,relative viability,Midostaurin + Trametinib; first compound 0.03162 µM,0.963
same,relative viability,Midostaurin + Trametinib; first compound 0.1 µM,0.806
same,relative viability,Midostaurin + Trametinib; first compound 0.3162 µM,0.915
COR-L 105,relative viability,[1]; first compound 0.0128 µM,0.323
same,relative viability,[1]; first compound 0.04048 µM,0.448
same,relative viability,[1]; first compound 0.128 µM,0.287
same,relative viability,[1]; first compound 1.28 µM,0.362
same,relative viability,Midostaurin + Trametinib; first compound 0.01 µM,0.483
same,relative viability,Midostaurin + Trametinib; first compound 0.03162 µM,0.445
same,relative viability,Midostaurin + Trametinib; first compound 0.1 µM,0.433
same,relative viability,Midostaurin + Trametinib; first compound 0.3162 µM,0.477
NCI-H1975,relative viability,[1]; first compound 0.0128 µM,0.345
same,relative viability,[1]; first compound 0.04048 µM,0.294
same,relative viability,[1]; first compound 0.128 µM,0.357
same,relative viability,[1]; first compound 1.28 µM,0.24
same,relative viability,Midostaurin + Trametinib; first compound 0.01 µM,0.344
same,relative viability,Midostaurin + Trametinib; first compound 0.03162 µM,0.388
same,relative viability,Midostaurin + Trametinib; first compound 0.1 µM,0.357
same,relative viability,Midostaurin + Trametinib; first compound 0.3162 µM,0.416
NCI-H1993,relative viability,[1]; first compound 0.0128 µM,0.5
same,relative viability,[1]; first compound 0.04048 µM,0.499
same,relative viability,[1]; first compound 0.128 µM,0.428
same,relative viability,[1]; first compound 1.28 µM,0.599
same,relative viability,Midostaurin + Trametinib; first compound 0.01 µM,0.484
same,relative viability,Midostaurin + Trametinib; first compound 0.03162 µM,0.537
same,relative viability,Midostaurin + Trametinib; first compound 0.1 µM,0.447
same,relative viability,Midostaurin + Trametinib; first compound 0.3162 µM,0.462
RERF-LC-KJ,relative viability,[1]; first compound 0.0128 µM,0.816
same,relative viability,[1]; first compound 0.04048 µM,0.76
same,relative viability,[1]; first compound 0.128 µM,0.772
same,relative viability,[1]; first compound 1.28 µM,0.794
same,relative viability,Midostaurin + Trametinib; first compound 0.01 µM,0.854
same,relative viability,Midostaurin + Trametinib; first compound 0.03162 µM,0.921
same,relative viability,Midostaurin + Trametinib; first compound 0.1 µM,0.84
same,relative viability,Midostaurin + Trametinib; first compound 0.3162 µM,0.806
NCI-H23,relative viability,[1]; first compound 0.0128 µM,0.736
same,relative viability,[1]; first compound 0.04048 µM,0.469
same,relative viability,[1]; first compound 0.128 µM,0.778
same,relative viability,[1]; first compound 1.28 µM,0.741
same,relative viability,Midostaurin + Trametinib; first compound 0.01 µM,0.369
same,relative viability,Midostaurin + Trametinib; first compound 0.03162 µM,0.441
same,relative viability,Midostaurin + Trametinib; first compound 0.1 µM,0.285
same,relative viability,Midostaurin + Trametinib; first compound 0.3162 µM,0.299
